From patent publication US10034476B2, “Insecticidal phenyl-or pyridyl-piperdine compounds” (Syngenta Participations AG, priority 2008, dated 2018)

Columns and labels:
Format in all cases: in vivo
Plutella xylostella = Plutella xylostella (diamond back moth) artificial diet test; conditions: 144 h, 200 ppm (concentration in well 18 ppm), L2 larvae, 6 days, larval mortality, growth regulation
Method: (§1) Plutella xylostella (Diamond Back Moth): 24-well microtiter plate (MTP) with artificial diet was treated with test solutions at an application rate of 200 ppm (concentration in well 18 ppm) by pipetting. After drying, the MTP's were infested with L2 larvae (7-12 per well). After an incubation period of 6 days, samples were checked for larval mortality and growth regulation.

Diabrotica balteata = Diabrotica balteata (corn root worm) artificial diet test; conditions: 120 h, 200 ppm (concentration in well 18 ppm), L2 larvae, 5 days, larval mortality, growth regulation
Method: as §1, with “Diabrotica Balteata (Corn Root Worm): A” for “Plutella xylostella (Diamond Back Moth):”, “with” for “with L2”, “(L2) (6-10” for “(7-12”, “5” for “6”, “mortality,” for “mortality”

Heliothis virescens = Heliothis virescens (tobacco budworm) egg/artificial diet test; conditions: 96 h, 200 ppm (concentration in well 18 ppm), eggs 0-24 h old on artificial diet, 4 days, egg mortality, larval mortality, growth regulation
Method: Heliothis virescens (Tobacco Budworm): Eggs (0-24 h old) were placed in 24-well microtiter plate on artificial diet and treated with test solutions at an application rate of 200 ppm (concentration in well 18 ppm) by pipetting. After an incubation period of 4 days, samples were checked for egg mortality, larval mortality, and growth regulation.

Spodoptera littoralis = Spodoptera littoralis (Egyptian cotton leafworm) cotton leaf disc spray test; conditions: foliar, 72 h, 200 ppm spray on cotton leaf discs, L1 larvae, 3 DAT, mortality, feeding behavior, growth regulation
From the text: Spodoptera littoralis (Egyptian Cotton Leafworm) Cotton leaf discs were placed on agar in a 24-well microtiter plate and sprayed with test solutions at an application rate of 200 ppm. After drying, the leaf discs were infested with 5 L1 larvae. The samples were checked for mortality, feeding behavior, and growth regulation 3 days after treatment (DAT).

Measured: pest or weed control at 200 ppm

O=C(Nc1cc(F)c(F)cc1C1CCN(Cc2ccc(-c3ccc(F)cc3)cc2)CC1)c1ccnc(Cl)c1 [Compound A3, 2-chloro-N-{4,5-difluoro-2-[1-(4′-fluoro-biphenyl-4-ylmethyl)-piperidin-4-yl]-phenyl}-isonicotinamide]
≥ 80%: all assays above

O=C(Nc1cc(F)c(F)cc1C1CC[N+]([O-])(Cc2ccc(-c3ccc(F)cc3)cc2)CC1)c1ccnc(Cl)c1 (centres unmarked) [Compound B1, 2-chloro-N-{4,5-difluoro-2-[1-(4′-fluoro-biphenyl-4-ylmethyl)-1-oxy-piperidin-4-yl]-phenyl}-isonicotinamide]
≥ 80%: all assays above

O=C(Nc1cc(F)c(Br)nc1C1CCN(Cc2ccc(-c3ccc(F)cc3)cc2)CC1)c1ccnc(Cl)c1 [Compound C5, N-[6-bromo-5-fluoro-1′-(4′-fluoro-biphenyl-4-ylmethyl)-1′,2′,3′,4′,5′,6′-hexahydro-[2,4′]bipyridinyl-3-yl]-2-chloro-isonicotinamide]
≥ 80%: all assays above

O=C(Nc1ccc(C(F)F)nc1C1CCN(Cc2ccc(-c3ccc(F)cc3)cc2)CC1)c1ccnc(Cl)c1 [Compound C6]
≥ 80%: all assays above

O=C(Nc1cc(Cl)c(OCC(F)(F)F)nc1C1CCN(Cc2ccc(-c3ccc(F)cc3)cc2)CC1)c1ccnc(Cl)c1 [Compound C9, 2-chloro-N-[5-chloro-1′-(4′-fluoro-biphenyl-4-ylmethyl)-6-(2,2,2-trifluoro-ethoxy)-1′,2′,3′,4′,5′,6′-hexahydro-[2,4′]bipyridinyl-3-yl]-isonicotinamide]
≥ 80%: all assays above

COc1ccc(NC(=O)c2ccnc(Cl)c2)c(C2CCN(Cc3ccc(-c4ccc(F)cc4)cc3)CC2)n1 [Compound C10, 2-chloro-N-[1′-(4′-fluoro-biphenyl-4-ylmethyl)-6-methoxy-1′,2′,3′,4′,5′,6′-hexahydro-[2,4′]bipyridinyl-3-yl]-isonicotinamide]
≥ 80%: all assays above

C=Cc1ccc(NC(=O)c2ccnc(Cl)c2)c(C2CCN(Cc3ccc(-c4ccc(F)cc4)cc3)CC2)n1 [Compound C11, 2-chloro-N-[1′-(4′-fluoro-biphenyl-4-ylmethyl)-6-vinyl-1′,2′,3′,4′,5′,6′-hexahydro-[2,4′]bipyridinyl-3-yl]-isonicotinamide]
≥ 80%: all assays above

O=C(Nc1cc(Cl)c(C2CC2)nc1C1CCN(Cc2ccc(-c3ccc(F)cc3)cc2)CC1)c1ccnc(Cl)c1 [Compound C13, 2-chloro-N-[5-chloro-6-cyclopropyl-1′-(4′-fluoro-biphenyl-4-ylmethyl)-1′,2′,3′,4′,5′,6′-hexahydro-[2,4′]bipyridinyl-3-yl]-isonicotinamide]
≥ 80%: all assays above

O=C(Nc1cc(C(F)(F)F)c(Br)nc1C1CCN(Cc2ccc(-c3ccc(F)cc3)cc2)CC1)c1ccnc(Cl)c1 [Compound C15]
≥ 80%: all assays above

O=C(Nc1cc(C(F)(F)F)c(Cl)nc1C1CCN(Cc2ccc(-c3ccc(F)cc3)cc2)CC1)c1ccnc(Cl)c1 [Compound C16]
≥ 80%: all assays above

O=C(Nc1cc(F)c(Cl)nc1C1CCN(Cc2ccc(-c3ccc(F)cc3)cc2)CC1)c1ccnc(Cl)c1 [Compound C17, 2-chloro-N-[6-chloro-5-fluoro-1′-(4′-fluoro-biphenyl-4-ylmethyl)-1′,2′,3′,4′,5′,6′-hexahydro-[2,4′]bipyridinyl-3-yl]-isonicotinamide]
≥ 80%: all assays above

O=C(Nc1cc(Br)cnc1C1CCN(Cc2ccc(-c3ccc(F)cc3)cc2)CC1)c1ccnc(Cl)c1 [Compound C23, N-[5-bromo-1′-(4′-fluoro-biphenyl-4-ylmethyl)-1′,2′,3′,4′,5′,6′-hexahydro-[2,4′]bipyridinyl-3-yl]-2-chloro-isonicotinamide]
≥ 80%: all assays above

O=C(Nc1cc(Br)c(Cl)nc1C1CCN(Cc2ccc(-c3ccc(F)cc3)cc2)CC1)c1ccnc(Cl)c1 [Compound C24, N-[5-bromo-6-chloro-1′-(4′-fluoro-biphenyl-4-ylmethyl)-1′,2′,3′,4′,5′,6′-hexahydro-[2,4′]bipyridinyl-3-yl]-2-chloro-isonicotinamide]
≥ 80%: all assays above

O=C(Nc1cc(F)c(F)nc1C1CCN(Cc2ccc(-c3ccc(F)cc3)cc2)CC1)c1ccnc(Cl)c1 [Compound C25, 2-chloro-N-{1′-(4′-fluoro-biphenyl-4-ylmethyl)-5,6-difluoro-1′,2′,3′,4′,5′,6′-hexahydro-[2,4′]bipyridinyl-3-yl}-isonicotinamide]
≥ 80%: all assays above

Cc1cc(NC(=O)c2ccnc(Cl)c2)c(C2CCN(Cc3ccc(-c4ccc(F)cc4)cc3)CC2)nc1Cl [Compound C26, 2-chloro-N-[6-chloro-1′-(4′-fluoro-biphenyl-4-ylmethyl)-5-methyl-1′,2′,3′,4′,5′,6′-hexahydro-[2,4′]bipyridinyl-3-yl]-isonicotinamide]
≥ 80%: all assays above

O=C(Nc1c(C2CCN(Cc3ccc(-c4ccc(F)cc4)cc3)CC2)nc(Cl)c(Cl)c1Cl)c1ccnc(Cl)c1 [Compound C30, 2-chloro-N-{4,5,6-trichloro-1′-(4′-fluoro-biphenyl-4-ylmethyl)-1′,2′,3′,4′,5′,6′-hexahydro-[2,4′]bipyridinyl-3-yl}-isonicotinamide]
≥ 80%: all assays above

O=C(Nc1cc(C(F)(F)F)c(F)nc1C1CCN(Cc2ccc(-c3ccc(F)cc3)cc2)CC1)c1ccnc(Cl)c1 [Compound C31, 2-chloro-N-{1′-(4′-fluoro-biphenyl-4-ylmethyl)-6-fluoro-5-trifluoromethyl-1′,2′,3′,4′,5′,6′-hexahydro-[2,4′]bipyridinyl-3-yl}-isonicotinamide]
≥ 80%: all assays above

O=C(Nc1ccc(OC(F)F)nc1C1CCN(Cc2ccc(-c3ccc(F)cc3)cc2)CC1)c1ccnc(Cl)c1 [Compound C40, 2-chloro-N-{1′-(4′-fluoro-biphenyl-4-ylmethyl)-6-difluoromethoxy-1′,2′,3′,4′,5′,6′-hexahydro-[2,4′]bipyridinyl-3-yl}-isonicotinamide]
≥ 80%: all assays above

O=C(Nc1c(F)cc(C(F)(F)F)nc1C1CCN(Cc2ccc(-c3ccc(F)cc3)cc2)CC1)c1ccnc(Cl)c1 [Compound C41, 2-chloro-N-{1′-(4′-fluoro-biphenyl-4-ylmethyl)-4-fluoro-6-trifluoromethyl-1′,2′,3′,4′,5′,6′-hexahydro-[2,4′]bipyridinyl-3-yl}-isonicotinamide]
≥ 80%: all assays above

O=C(Nc1ccc(C(F)(F)F)nc1C1CC[N+]([O-])(Cc2ccc(-c3ccc(F)cc3)cc2)CC1)c1ccnc(Cl)c1 (centres unmarked) [Compound D1, 2-chloro-N-[1′-(4′-fluoro-biphenyl-4-ylmethyl)-1′-oxy-6-trifluoromethyl-1′,2′,3′,4′,5′,6′-hexahydro-[2,4′]bipyridinyl-3-yl]-isonicotinamide]
≥ 80%: all assays above
